B1: IL-12: inflammatory cytokine purchased from R&D System (protein, UniProt P29459 23-219; P29460 23-328, looked up)
Interleukin-12 subunit alpha: RNLPVATPDPGMFPCLHHSQNLLRAVSNMLQKARQTLEFYPCTSEEIDHEDITKDKTSTVEACLPLELTKNESCLNSRETSFITNGSCLASRKTSFMMALCLSSIYEDLKMYQVEFKTMNAKLLMDPKRQIFLDQNMLAVIDELMQALNFNSETVPQKSSLEEPDFYKTKIKLCILLHAFRIRAVTIDRVMSYLNAS
Interleukin-12 subunit beta: IWELKKDVYVVELDWYPDAPGEMVVLTCDTPEEDGITWTLDQSSEVLGSGKTLTIQVKEFGDAGQYTCHKGGEVLSHSLLLLHKKEDGIWSTDILKDQKEPKNKTFLRCEAKNYSGRFTCWWLTTISTDLTFSVKSSRGSSDPQGVTCGAATLSAERVRGDNKEYEYSVECQEDSACPAAEESLPIEVMVDAVHKLKYENYTSSFFIRDIIKPDPPKNLQLKPLKNSRQVEVSWEYPDTWSTPHSYFSLTFCVQVQGKSKREKKDRVFTDKTSATVICRKNASISVRAQDRYYSSSWSEWASVPCS

Tests used:
[1] = test system: M. tuberculosis-specific T cells; assay: QuantiFERON-TB Gold In-Tube (QFT-GIT) whole blood IFN-γ release assay with immunomodulation by TLR agonists; conditions: for IFN-γ responses compared to the standard assay in anergic subjects / IFN-γ response at intermediate concentration / enhancement of IFN-γ response (median): poly(I:C) 40 μg/ml, imiquimod 2 μg/ml; for IFN-γ responses compared to the standard assay in anergic subjects: P <0.05; for IFN-γ response compared to the standard assay, two concentrations: 8 subjects with LTBI, poly(I:C) 10 and 100 μg/ml, LPS 125 and 500 pg/ml, imiquimod 1 and 5 μg/ml; for enhancement of IFN-γ response (median): vs standard QFT-GIT; for recapitulation of the effects of TLR agonists on the QFT-GIT assay: IL-6 at 200 and 2000 pg/ml, IL-12 at 12.5 and 25 pg/ml, INF-α at 15 and 30 pg/ml, alone or in combination; for kinetics of IFN-γ release: QFT-GIT with immunomodulation vs without, correlated with cytokine induction / APC maturation
Excerpt: Healthy adults were recruited from the Stanford Hospital clinical laboratories using a protocol approved by the Institutional Review Board. After obtaining in informed consent, volunteers were asked to complete a standardized questionnaire to assess risk factors for TB exposure. LTBI was defined as prior history of positive TST and QFT-GIT and ≧1 risk factor for LTBI. Uninfected control was defined as US born with prior negative TST and QFT-GIT and no risk factors.
The QFT-GIT assay was performed according to package insert with a slight modification described below. Up to 10 μA of each TLR agonist or an equivalent volume of endotoxin-free water was added to each QFT-GIT tube. Blood was collected in a 10 mL Kendall Monoject Green Stopper tube and 1 mL was quickly transferred to each QFT-GIT tube. Tubes were placed in a 3TC incubator for 22 hours or as indicated. ELISA was performed according to package insert. […] Calculation of IFN-γ concentrations was done with the software provided by the manufacturer.
Statistical analyses were performed using the Prism software (Graph Pad, San Diego, Calif.). The Wilcoxon's test of medians was used to compare differences in medians. All statistical tests were computed for a two-sided type I error rate of 5%.

[2] = test system: blood cells in the Nil tube; assay: Cytokine profiling of plasma from the QFT-GIT Nil tube after immunomodulation; type: cell-based, human; conditions: poly(I:C) 40 μg/ml, LPS 250 pg/ml, 22 h
Procedure: Was performed at the Human Immune Monitoring Center (HIMC) at Stanford University. 100 μl of plasma from the QFT-GIT Nil tube was subjected to cytokine profiling. Procarta Cytokine Assay custom 51-plex kit (Affymetrix, Palo Alto, Calif.) was used according to manufacturer's recommendations.

antigen presenting cells = assay: Flow cytometry of surface expression of MHC and costimulatory molecules in the QFT-GIT assay; type: cell-based, human; conditions: compared to unstimulated blood cells; LPS 250 pg/ml, poly(I:C) 40 μg/ml; 3 and 6 hours
Procedure: The QFT-GIT tubes were incubated upside down to prevent migration of cells into the gel layer. At the end of incubation 100 μl of 20 mM EDTA was added per tube. Samples were vortexed and incubated at room temperature for 15 minutes. Blood was transferred to a 15 ml polypropylene tube containing 9 ml of 1×FACS™ Lysing Solution (BD Biosciences, Immunocytometry Systems, San Jose, Calif.). Samples were incubated at room temperature for 10 minutes and directly transferred to a −70° C. freezer for storage. The cell surface immune profiling studies were performed at the HIMC. The cells were thawed in warm media, washed once with FACS buffer (PBS supplemented with 2% FBS and 0.1% sodium azide) and resuspended at 1×10^7 viable cells/ml. 5×10^5 cells per well were stained for 45 min at room temperature with the following antibodies: All reagents were purchased from BD Biosciences. Cells were washed three times with FACS buffer, and resuspended in […]. 10,000 cells per sample were collected using DIVA 6.0 software on an LSR11 flow cytometer (BD Biosciences). Data analysis was performed using FlowJo v9.3 by gating on live cells based on forward versus side scatter profiles, then on singlets using forward scatter area versus height, followed by cell subset-specific gating.

[3] = 8 individuals with histories of LTBI but currently negative QFT-GIT, LPS 250 pg/ml
[4] = subjects with LTBI, LPS 250 pg/ml
[5] = uninfected controls, LPS 250 pg/ml

| Molecule | IFN-γ responses compared to the standard assay in anergic subjects [1, 3] | IFN-γ response compared to the standard assay, two concentrations [1] | IFN-γ response at intermediate concentration [1, 4] | enhancement of IFN-γ response (median) [1, 4] [fold] | IFN-γ response at intermediate concentration [1, 5] | recapitulation of the effects of TLR agonists on the QFT-GIT assay [1] | levels of IL-6, IL-12 p40, IFN-α, and other cytokines [2] | surface expression of MHC II and costimulatory molecules in monocytes and partially in B cells and myeloid dendritic cells (antigen presenting cells) | consistency in eliciting a response higher than the cutoff value for the standard assay ([1]; 8 individuals with histories of LTBI but currently negative QFT-GIT, cutoff 0.35 IU/ml) | kinetics of IFN-γ release [1] | magnitude of the IFN-γ responses (TB Ag minus Nil) [1, 5] [IU/ml] |
| --- | --- | --- | --- | --- | --- | --- | --- | --- | --- | --- | --- |
| CC(C)Cn1cnc2c(N)nc3ccccc3c21 [imiquimod] | significantly increased | dose-dependent enhancement | significant enhancement | 3 | not in the uninfected controls | – | – | – | – | – | – |
| IL-6: inflammatory cytokine purchased from R&D System | – | – | – | – | – | failed to recapitulate | – | – | – | – | – |
| lipopolysaccharide [LPS] | significantly increased | dose-dependent enhancement | significant enhancement | 3.1 | significantly increased | – | significantly increased | increased | most consistent | earlier and more robust release of IFN-γ | ≤ 0.5 |
| poly(I:C) | significantly increased | dose-dependent enhancement | significant enhancement | 5.7 | not in the uninfected controls | – | significantly increased | not | – | earlier and more robust release of IFN-γ | – |
| B1 | – | – | – | – | – | failed to recapitulate | – | – | – | – | – |
